The results in this text go back to patent publication US11866430B2, “Naphthyridinone compounds useful as T cell activators” (priority 2018, dated 2024).

Where two headings read alike, the source gives them in different places. Where only a bound is given, the exact number is not on record here.

By IC50 is commonly meant the concentration that gives 50% inhibition.

One assay deals with human DGKζ (Homo sapiens (Human), UniProt Q13574). The assay can be described thus: DGKζ assay (detergent/lipid micelle substrate). Type of assay: biochemical. Conditions: detergent/lipid micelle substrate; read-out: DGKζ IC50. Here is the method: (§1) The DGKα and DGKζ reactions were performed using either extruded liposome (DGKα and DGKζ LIPGLO assays) or detergent/lipid micelle substrate (DGKα and DGKζ assays). The reactions were carried out in 50 mM MOPS pH 7.5, 100 mM NaCl, 10 mM MgCl2, 1 μM CaCl2, and 1 mM DTT (assay buffer). The reactions using a detergent/lipid micelle substrate also contained 50 mM octyl B-D-glucopyranoside. […] The lipid substrate concentrations were […], 0.25 mM DAG, and 2.75 mM PC for the extruded liposome reactions.
human DGKζ, sequence (Q13574 other isoform, or with tags, fused parts or gaps): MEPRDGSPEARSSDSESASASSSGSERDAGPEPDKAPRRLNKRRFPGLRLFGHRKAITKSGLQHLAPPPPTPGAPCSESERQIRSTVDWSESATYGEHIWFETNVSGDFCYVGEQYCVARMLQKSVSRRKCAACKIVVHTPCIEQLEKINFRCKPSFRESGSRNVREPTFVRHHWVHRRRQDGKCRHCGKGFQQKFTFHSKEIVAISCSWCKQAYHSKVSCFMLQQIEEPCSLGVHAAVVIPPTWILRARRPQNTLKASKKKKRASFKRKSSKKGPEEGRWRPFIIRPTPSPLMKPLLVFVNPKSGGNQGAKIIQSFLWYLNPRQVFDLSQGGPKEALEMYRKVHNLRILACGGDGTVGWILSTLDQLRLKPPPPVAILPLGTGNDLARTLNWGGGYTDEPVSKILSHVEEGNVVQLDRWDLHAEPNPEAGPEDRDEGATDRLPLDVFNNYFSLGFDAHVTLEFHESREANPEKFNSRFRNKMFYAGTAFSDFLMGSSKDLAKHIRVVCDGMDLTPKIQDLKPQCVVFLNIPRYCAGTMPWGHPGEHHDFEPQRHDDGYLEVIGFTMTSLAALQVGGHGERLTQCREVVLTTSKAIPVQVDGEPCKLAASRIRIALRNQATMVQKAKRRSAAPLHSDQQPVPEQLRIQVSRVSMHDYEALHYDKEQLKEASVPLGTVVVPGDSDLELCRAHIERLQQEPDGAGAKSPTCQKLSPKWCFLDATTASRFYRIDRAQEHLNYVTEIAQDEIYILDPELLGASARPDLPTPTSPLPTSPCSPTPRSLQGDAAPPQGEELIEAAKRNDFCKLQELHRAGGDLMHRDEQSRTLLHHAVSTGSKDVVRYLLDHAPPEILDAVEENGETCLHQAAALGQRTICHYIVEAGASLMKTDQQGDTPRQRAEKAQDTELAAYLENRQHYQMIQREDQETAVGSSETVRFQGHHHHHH
(§2) The compound inhibition studies were carried out as follows: 50 nL droplets of each test compound (top concentration 10 mM with 11 point, 3-fold dilution series for each compound) solubilized in DMSO were transferred to wells of a white 1536 well plate (Corning 3725). A 5 mL enzyme/substrate solution at 2× final reaction concentration was prepared by combining 2.5 mL 4× enzyme solution (20 nM DGKα or DGKζ (prepared as described below) in assay buffer) and 2.5 mL of either 4× liposome or 4× detergent/lipid micelle solution (compositions described below) and incubated at room temperature for 10 minutes. Next, 1 μL 2× enzyme/substrate solution was added to wells containing the test compound and reactions were initiated with the addition of 1 μL 300 uM ATP. The reactions were allowed to proceed for 1 hr, after which 2 μL Glo Reagent (Promega V9101) was added and incubated for 40 minutes. Next, 4 μL Kinase Detection Reagent was added and incubated for 30 minutes. Luminescence was recorded using an EnVision microplate reader. […] The compounds were evaluated at 11 concentrations to determine IC50.
(§3) The detergent/lipid micelle was prepared by combining 15 g phosphatidylserine (Avanti 840035P) and 1 g diacylglycerol (800811O) and dissolving into 150 mL chloroform in a 2 L round bottom flask. Chloroform was removed under high vacuum by rotary evaporation. The resulting colorless, tacky oil was resuspended in 400 mL 50 mM MOPS pH 7.5, 100 mM NaCl, 20 mM NaF, 10 mM MgCl2, 1 μM CaCl2), 1 mM DTT, and 200 mM octyl glucoside by vigorous mixing. The lipid/detergent solution was split into 5 mL aliquots and stored at −80° C.
(§4) Human DGK-alpha-TVMV-His-pFBgate and human DCK-zeta-transcript variant-2-TVMV-His-pFBgate baculovirus samples were generated using the Bac-to-Bac baculovirus expression system (Invitrogen) according to the manufacturer's protocol. The DNA used for expression of DGK-alpha and DGK-zeta have SEQ ID NOs: 1 and 3, respectively. Baculovirus amplification was achieved using infected Sf9 cells at 1:1500 virus/cell ratios, and grown for 65 hours at 27° C. post-transfection.
(§5) The expression scale up for each protein was carried out in the Cellbag 50 L WAVE-Bioreactor System 20/50 from GE Healthcare Bioscience. 12 L of 2×10^6 cells/mL Sf9 cells (Expression System, Davis, Calif.) grown in ESF921 insect medium (Expression System) were infected with virus stock at 1:200 virus/cell ratios, and grown for 66-68 hours at 27° C. post-infection. The infected cell culture was harvested by centrifugation at 2000 rpm for 20 min 4° C. in a SORVALL® RC12BP centrifuge. The cell pellets were stored at −70° C. until purification.
(§6) Full length human DGKα and DGKζ, each expressed containing a TVMV-cleavable C-terminal Hexa-His tag sequence (SEQ ID NOs: 2 and 4, respectively) and produced as described above, were purified from Sf) baculovirus-infected insect cell paste. The cells were lysed using nitrogen cavitation method with a nitrogen bomb (Parr Instruments), and the lysates were clarified by centrifugation. […] The three steps column chromatography included nickel affinity resin capture (i.e. HisTrap FF crude, GE Healthcare), followed by size exclusion chromatography (i.e. HiLoad 26/600 Superdex 200 prep grade, GE Healthcare for DGK-alpha, and HiPrep 26/600 Sephacryl S 300_HR, GE Healthcare for DGK-zeta).

Assay [1] has as its system pre-activated CD4 T cells and Raji cells. The assay can be described thus: Raji CD4 T Cell IL2 Assay. The format is cell-based.
The target in another assay is human DGKα (Homo sapiens (Human), UniProt P23743). The assay can be described thus: biochemical. Conditions: detergent/lipid micelle substrate; read-out: DGKα IC50. Here is the method:
as §1, §2, §3, §4, §5, §6

human DGKα, sequence (P23743 other isoform, or with tags, fused parts or gaps): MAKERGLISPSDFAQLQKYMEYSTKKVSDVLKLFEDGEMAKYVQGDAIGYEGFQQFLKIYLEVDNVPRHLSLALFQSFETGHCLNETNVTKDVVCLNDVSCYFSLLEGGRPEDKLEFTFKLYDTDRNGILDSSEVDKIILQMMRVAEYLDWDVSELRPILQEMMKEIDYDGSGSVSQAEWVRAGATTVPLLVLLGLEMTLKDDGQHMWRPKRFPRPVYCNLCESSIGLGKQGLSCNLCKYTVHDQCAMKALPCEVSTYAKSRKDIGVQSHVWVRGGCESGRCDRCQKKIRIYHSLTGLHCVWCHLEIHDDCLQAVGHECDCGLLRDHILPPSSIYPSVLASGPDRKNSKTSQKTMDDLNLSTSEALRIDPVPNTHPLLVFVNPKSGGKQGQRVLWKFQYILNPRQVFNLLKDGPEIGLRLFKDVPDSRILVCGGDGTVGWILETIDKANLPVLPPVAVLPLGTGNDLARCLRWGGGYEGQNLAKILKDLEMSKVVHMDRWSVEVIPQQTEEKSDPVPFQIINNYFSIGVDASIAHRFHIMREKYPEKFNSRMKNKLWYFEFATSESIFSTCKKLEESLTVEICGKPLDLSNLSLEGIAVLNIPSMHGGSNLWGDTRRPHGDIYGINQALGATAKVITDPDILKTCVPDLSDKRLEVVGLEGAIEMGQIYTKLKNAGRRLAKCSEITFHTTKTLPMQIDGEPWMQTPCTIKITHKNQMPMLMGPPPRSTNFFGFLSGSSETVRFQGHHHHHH

Turning to `COCCn1c(=O)c(C#N)c(N2CCN(C(c3ccc(F)cc3)c3ccc(F)cc3OC)CC2)c2nc(Br)ccc21` (single isomer, unassigned) [Example 116, 6-bromo-4-(4-((4-fluoro-2-methoxyphenyl)(4-fluorophenyl)methyl)piperazin-1-yl)-1-(2-methoxyethyl)-2-oxo-1,2-dihydro-1,5-naphthyridine-3-carbonitrile], the results for the IC50 (on human DGKζ; in assay [1]; at human DGKα) were over 240 µM, 0.17 µM and over 240 µM, respectively.
Regarding `C#CCn1c(=O)c([N+](=O)[O-])c(N2CCN(C(c3ccc(F)cc3)C3CC3)CC2)c2nc(C#N)ccc21` (single isomer, unassigned) [Example 144, 8-(4-(cyclopropyl(4-fluorophenyl)methyl)piperazin-1-yl)-7-nitro-6-oxo-5-(prop-2-yn-1-yl)-5,6-dihydro-1,5-naphthyridine-2-carbonitrile], the IC50 at human DGKζ came to 7.9 µM; in assay [1] (Homo sapiens, Raji), 0.02 µM; at human DGKα, 0.53 µM.
In the case of `COCCn1c(=O)c([N+](=O)[O-])c(N2CCN(C(C)c3ccc(F)cc3)CC2)c2nc(C#N)ccc21` (single isomer, unassigned) [Example 149, 8-(4-(1-(4-fluorophenyl)ethyl)piperazin-1-yl)-5-(2-methoxyethyl)-7-nitro-6-oxo-5,6-dihydro-1,5-naphthyridine-2-carbonitrile], the half-maximal inhibitory concentration (IC50) on human DGKζ was 86 µM; in assay [1] it was 0.064 µM; on human DGKα, 47 µM.
As for `COCCn1c(=O)c([N+](=O)[O-])c(N2CCN(C(C)c3ccc(F)cc3)CC2)c2nc(C#N)ccc21` (single isomer, unassigned) [Example 150, 8-(4-(1-(4-fluorophenyl)ethyl)piperazin-1-yl)-5-(2-methoxyethyl)-7-nitro-6-oxo-5,6-dihydro-1,5-naphthyridine-2-carbonitrile], the 50% inhibitory concentration (IC50) is 88 µM on human DGKζ, 0.51 µM in assay [1] and 73 µM on human DGKα.
As to `COc1ccccc1C(c1ccc(F)cc1)N1CCN(c2c(C#N)c(=O)n(CC3CC3)c3ccc(Br)nc23)CC1` (single isomer, unassigned) [Example 159, 6-bromo-1-(cyclopropylmethyl)-4-(4-((4-fluorophenyl)(2-methoxyphenyl)methyl)piperazin-1-yl)-2-oxo-1,2-dihydro-1,5-naphthyridine-3-carbonitrile], the IC50 at human DGKζ is over 240 µM; in assay [1] (Homo sapiens, Raji), 2 µM; on human DGKα, 120 µM.
In the case of `COc1ccccc1C(c1ccc(F)cc1)N1CCN(c2c(C#N)c(=O)n(CC3CC3)c3ccc(Br)nc23)CC1` (single isomer, unassigned) [Example 160, 6-bromo-1-(cyclopropylmethyl)-4-(4-((4-fluorophenyl)(2-methoxyphenyl)methyl)piperazin-1-yl)-2-oxo-1,2-dihydro-1,5-naphthyridine-3-carbonitrile], the IC50 came to 160 µM at human DGKζ, 2.9 µM in assay [1] and 180 µM at human DGKα.
`Cn1c(=O)c(C#N)c(N2CCN(Cc3ccccc3O)CC2)c2nc(Br)ccc21` [Example 2, 6-Bromo-4-(4-(2-hydroxybenzyl)piperazin-1-yl)-1-methyl-2-oxo-1,2-dihydro-1,5-naphthyridine-3-carbonitrile]: the IC50 at human DGKζ was over 240 µM; in assay [1] (Homo sapiens, Raji), 0.2 µM; on human DGKα, 0.049 µM.
The like results for `COc1ccc2c(c1)C(N1CCN(c3c(C#N)c(=O)n(C)c4ccc(Br)nc34)CC1)CC2` (stereo not drawn) [Example 21, 6-bromo-4-[4-(6-methoxy-2,3-dihydro-1H-inden-1-yl)piperazin-1-yl]-1-methyl-2-oxo-1,2-dihydro-1,5-naphthyridine-3-carbonitrile] were, in that order, 94 µM, 0.41 µM and 22 µM.
On the same counts, the results for `Cn1c(=O)c(C#N)c(N2CCN(C(CO)c3ccc(F)cc3)CC2)c2nc(Br)ccc21` (stereo not drawn) [Example 31, 6-bromo-4-{4-[1-(4-fluorophenyl)-2-hydroxyethyl]piperazin-1-yl}-1-methyl-2-oxo-1,2-dihydro-1,5-naphthyridine-3-carbonitrile] are over 240 µM, 1.8 µM and 1.2 µM.
On the same counts, the results for `C#CCOc1ccccc1C(c1ccc(F)cc1)N1CCN(c2c(C#N)c(=O)n(C)c3ccc(Cl)nc23)CC1` (stereo not drawn) [Example 39, 6-chloro-4-{4-[(4-fluorophenyl)[2-(prop-2-yn-1-yloxy)phenyl]methyl]piperazin-1-lv}-1-methyl-2-oxo-1,2-dihydro-1,5-naphthyridine-3-carbonitrile] are over 240 µM, 0.64 µM and 50 µM.
Consider `Cn1c(=O)c([N+](=O)[O-])c(N2CCN(C(c3ccc(F)cc3)c3ccc(F)cc3)CC2)c2nc(C#N)ccc21` [Example 40, 8-(4-(bis(4-fluorophenyl)methyl)piperazin-1-yl)-5-methyl-7-nitro-6-oxo-5,6-dihydro-1,5-naphthyridine-2-carbonitrile], for which the concentration for half-maximal inhibition (IC50) on human DGKζ came to 1.3 µM; in assay [1] (Homo sapiens, Raji), 0.037 µM; on human DGKα it was 1.9 µM.
As to `COc1ccc2c(c1)C(N1CCN(c3c([N+](=O)[O-])c(=O)n(C)c4ccc(C#N)nc34)CC1)CC2` (stereo not drawn) [Example 46, 8-(4-(6-methoxy-2,3-dihydro-1H-inden-1-yl)piperazin-1-yl)-5-methyl-7-nitro-6-oxo-5,6-dihydro-1,5-naphthyridine-2-carbonitrile], the half-inhibitory concentration (IC50) was 2.7 µM on human DGKζ; 0.13 µM in assay [1] (Homo sapiens, Raji); 8.5 µM at human DGKα.
Consider `Cn1c(=O)c([N+](=O)[O-])c(N2CCN(C(c3ccccc3)c3ccccc3)CC2)c2nc(Br)ccc21` [Example 52, 4-(4-benzhydrylpiperazin-1-yl)-6-bromo-1-methyl-3-nitro-1,5-naphthyridin-2(1H)-one], for which the IC50 was 150 µM at human DGKζ; 0.056 µM in assay [1] (Homo sapiens, Raji); 7.8 µM at human DGKα.
In the case of `Cn1c(=O)c([N+](=O)[O-])c(N2CCN(C(c3ccc(F)cc3)c3ccc(F)cc3)CC2)c2nc(Br)ccc21` [Example 53, 4-(4-(bis(4-fluorophenyl)methyl)piperazin-1-yl)-6-bromo-1-methyl-3-nitro-1,5-naphthyridin-2(1H)-one], the IC50 on human DGKζ turned out to be 16 µM; in assay [1] (Homo sapiens, Raji), 0.043 µM; on human DGKα, 1.5 µM.
On to `C#CCn1c(=O)c(C#N)c(N2CCN(Cc3ccccc3C(F)F)CC2)c2nc(Br)ccc21` [Example 64, 6-bromo-4-(4-(2-(difluoromethyl)benzyl)piperazin-1-yl)-2-oxo-1-(prop-2-yn-1-yl)-1,2-dihydro-1,5-naphthyridine-3-carbonitrile], for which the IC50 at human DGKζ was found to be 14 µM; in assay [1] (Homo sapiens, Raji), 55 µM; on human DGKα, 2.7 µM.
The like results for `C#CCn1c(=O)c(C#N)c(N2CCN(Cc3ccc(F)cc3OC)CC2)c2nc(Br)ccc21` [Example 68, 6-bromo-4-(4-(4-fluoro-2-methoxybenzyl)piperazin-1-yl)-2-oxo-1-(prop-2-yn-1-yl)-1,2-dihydro-1,5-naphthyridine-3-carbonitrile] were, in that order, 23 µM, 0.052 µM and 4 µM.
